Several values for one entry are separate records, joined by “and”; a condition that tells them apart may be missing. Identical values can stand only once. Inconclusive results and toxic doses are left out. Rule as the data show it: active = T/C of 150% or more; inactive = T/C below 125%.
Test system: L1210 leukemia ip in BDF1 mice, survival T/C
Test: NCI In Vivo Anticancer Drug Screen. Data for tumor model L1210 Leukemia (intraperitoneal) in B6D2F1 (BDF1) mice
Conditions: endpoint: mean survival time, higher = longer survival
Method in brief: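 Survival endpoint. Drug-treated group vs vehicle group, expressed as T divided by C. Tumor passaged by transplantation.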

[1] = dose: 75.0 mg/kg/injection, schedule: Q01DX009 (ip), vehicle: saline
[2] = dose: 100.0 mg/kg/injection, schedule: Q01DX009 (ip), vehicle: Klucel (hydroxypropylcellulose) (HPC)
[3] = dose: 200.0 mg/kg/injection, schedule: Q01DX009 (ip), vehicle: Klucel (hydroxypropylcellulose) (HPC)
[4] = dose: 100.0 mg/kg/injection, schedule: Q01DX009 (ip), vehicle: saline with Tween-80
[5] = dose: 150.0 mg/kg/injection, schedule: Q01DX009 (ip), vehicle: saline
[6] = dose: 300.0 mg/kg/injection, schedule: Q01DX009 (ip), vehicle: saline
[7] = dose: 100.0 mg/kg/injection, schedule: Q04DX003 (ip), vehicle: Klucel (hydroxypropylcellulose) (HPC)
[8] = dose: 200.0 mg/kg/injection, schedule: Q04DX003 (ip), vehicle: Klucel (hydroxypropylcellulose) (HPC)
[9] = dose: 400.0 mg/kg/injection, schedule: Q04DX003 (ip), vehicle: Klucel (hydroxypropylcellulose) (HPC)

Measured: T/C

CCCC[n+]1cccc(C#N)c1
inactive: dose: 18.75 mg/kg/injection, schedule: Q01DX009 (ip), vehicle: saline 92 % of control | dose: 37.5 mg/kg/injection, schedule: Q01DX009 (ip), vehicle: saline 101 % of control | dose: 37.5 mg/kg/injection, schedule: Q04DX003 (ip), vehicle: saline 93 % of control | dose: 75.0 mg/kg/injection, schedule: Q01DX001 (ip), vehicle: saline 98 % of control | [1] 90 % of control | dose: 75.0 mg/kg/injection, schedule: Q04DX003 (ip), vehicle: saline 93 % of control | dose: 150.0 mg/kg/injection, schedule: Q01DX001 (ip), vehicle: saline 95 % of control | dose: 150.0 mg/kg/injection, schedule: Q04DX003 (ip), vehicle: saline 91 % of control

CC(=O)c1cccc(NC(=O)c2ccco2)c1
inactive: dose: 50.0 mg/kg/injection, schedule: Q01DX009 (ip), vehicle: Klucel (hydroxypropylcellulose) (HPC) 96 % of control | [2] 93 % of control | [3] 93 % of control

Nc1ncnc2c1ncn2C1OC(C(=O)NO)C(O)C1O (stereo not drawn)
inactive: dose: 0.78 mg/kg/injection, schedule: Q01DX009 (ip), vehicle: saline 106 % of control | dose: 1.56 mg/kg/injection, schedule: Q01DX005 (ip), vehicle: saline 104 % of control | dose: 1.56 mg/kg/injection, schedule: Q01DX009 (ip), vehicle: saline 123 % of control | dose: 3.12 mg/kg/injection, schedule: Q01DX005 (ip), vehicle: saline 121 % of control

COc1cc(N(CCCl)CCCl)ccc1C=Nc1ccccc1-n1ccnc1
inactive: dose: 68.8 mg/kg/injection, schedule: Q04DX002 (ip), vehicle: Klucel (hydroxypropylcellulose) (HPC) 102 % of control | dose: 137.5 mg/kg/injection, schedule: Q04DX002 (ip), vehicle: Klucel (hydroxypropylcellulose) (HPC) 91 % of control | dose: 275.0 mg/kg/injection, schedule: Q04DX002 (ip), vehicle: Klucel (hydroxypropylcellulose) (HPC) 102 % of control

S=c1[nH]nc2n1NC(c1ccoc1)=NN2
inactive: dose: 25.0 mg/kg/injection, schedule: Q01DX009 (ip), vehicle: saline with Tween-80 96 % of control | dose: 50.0 mg/kg/injection, schedule: Q01DX009 (ip), vehicle: saline with Tween-80 95 % of control | [4] 97 % of control

N#CSCc1cc(Cl)c(CSC#N)c(Cl)c1Cl
inactive: [1] 89 % of control | [5] 96 % of control | [6] 91 % of control

COc1ccc(OCC(=O)O)cc1
inactive: dose: 100.0 mg/kg/injection, schedule: Q04DX003 (ip), vehicle: saline with Tween-80 102 % of control | dose: 200.0 mg/kg/injection, schedule: Q04DX003 (ip), vehicle: saline with Tween-80 107 % of control | dose: 400.0 mg/kg/injection, schedule: Q04DX003 (ip), vehicle: saline with Tween-80 107 % of control

CCCCC#CC(=O)OCCCCC
inactive: [4] 105 % of control | dose: 200.0 mg/kg/injection, schedule: Q01DX009 (ip), vehicle: saline with Tween-80 91 % of control

CNCC(O)c1cc(OC)c(OC)c(OC)c1 (stereo not drawn)
inactive: dose: 100.0 mg/kg/injection, schedule: Q04DX002 (ip), vehicle: saline 102 % of control | dose: 200.0 mg/kg/injection, schedule: Q04DX002 (ip), vehicle: saline 93 % of control | dose: 400.0 mg/kg/injection, schedule: Q04DX002 (ip), vehicle: saline 96 % of control

O=[N+]([O-])c1cccn2ncnc12
inactive: dose: 5.0 mg/kg/injection, schedule: Q01DX001 (ip), vehicle: acetone 104 % of control | dose: 10.0 mg/kg/injection, schedule: Q01DX001 (ip), vehicle: acetone 106 % of control | dose: 20.0 mg/kg/injection, schedule: Q01DX001 (ip), vehicle: acetone 96 % of control | dose: 40.0 mg/kg/injection, schedule: Q01DX001 (ip), vehicle: acetone 96 % of control | dose: 80.0 mg/kg/injection, schedule: Q01DX001 (ip), vehicle: acetone 107 % of control

Cc1cc(NC(=O)Nc2ccc(Cl)c(C(F)(F)F)c2)no1
inactive: dose: 50.0 mg/kg/injection, schedule: Q01DX009 (ip), vehicle: carboxymethylcellulose (CMC) 96 % of control and 97 % of control | dose: 100.0 mg/kg/injection, schedule: Q01DX001 (ip), vehicle: carboxymethylcellulose (CMC) 110 % of control and 112 % of control | dose: 100.0 mg/kg/injection, schedule: Q04DX002 (ip), vehicle: carboxymethylcellulose (CMC) 94 % of control and 100 % of control | dose: 100.0 mg/kg/injection, schedule: Q04DX003 (ip), vehicle: carboxymethylcellulose (CMC) 96 % of control and 103 % of control | dose: 200.0 mg/kg/injection, schedule: Q01DX001 (ip), vehicle: carboxymethylcellulose (CMC) 95 % of control and 108 % of control | dose: 200.0 mg/kg/injection, schedule: Q04DX002 (ip), vehicle: carboxymethylcellulose (CMC) 94 % of control and 97 % of control | dose: 200.0 mg/kg/injection, schedule: Q04DX003 (ip), vehicle: carboxymethylcellulose (CMC) 97 % of control and 101 % of control | dose: 400.0 mg/kg/injection, schedule: Q01DX001 (ip), vehicle: carboxymethylcellulose (CMC) 94 % of control and 91 % of control | dose: 400.0 mg/kg/injection, schedule: Q01DX009 (ip), vehicle: carboxymethylcellulose (CMC) 86 % of control | dose: 400.0 mg/kg/injection, schedule: Q04DX002 (ip), vehicle: carboxymethylcellulose (CMC) 89 % of control and 90 % of control | dose: 400.0 mg/kg/injection, schedule: Q04DX003 (ip), vehicle: carboxymethylcellulose (CMC) 92 % of control and 95 % of control

Cc1ccc(-c2cc(-c3ccccc3)no2)cc1
inactive: [2] 97 % of control | [7] 102 % of control | [3] 95 % of control | [8] 102 % of control | dose: 400.0 mg/kg/injection, schedule: Q01DX009 (ip), vehicle: Klucel (hydroxypropylcellulose) (HPC) 95 % of control | [9] 93 % of control

COC1OCN(C)CC1(C)C (stereo not drawn)
inactive: [1] 87 % of control | [7] 105 % of control | [5] 95 % of control | [8] 102 % of control | [6] 99 % of control

[Cl][Hg][S]C1CCCC1
inactive: dose: 5.0 mg/kg/injection, schedule: Q01DX001 (ip), vehicle: saline 106 % of control | dose: 10.0 mg/kg/injection, schedule: Q01DX001 (ip), vehicle: saline 101 % of control | dose: 20.0 mg/kg/injection, schedule: Q01DX001 (ip), vehicle: saline 101 % of control

COc1ccc(CCN(C)C(c2ccccc2)c2ccccc2)cc1OC
inactive: dose: 100.0 mg/kg/injection, schedule: Q01DX001 (ip), vehicle: saline 100 % of control | dose: 200.0 mg/kg/injection, schedule: Q01DX001 (ip), vehicle: saline 96 % of control | dose: 400.0 mg/kg/injection, schedule: Q01DX001 (ip), vehicle: saline 104 % of control

O=C(O)/C(=C\c1ccc(Cl)cc1)c1ccc(Cl)cc1
inactive: [2] 104 % of control | [7] 95 % of control | [3] 89 % of control | [8] 91 % of control | [9] 95 % of control

O=C1c2cscc2C(=O)c2c(Cl)sc(Cl)c21
inactive: dose: 100.0 mg/kg/injection, schedule: Q04DX003 (ip), vehicle: acetone 102 % of control

O=c1cc(O)nc(C(F)(F)F)[nH]1
inactive: dose: 29.0 mg/kg/injection, schedule: Q01DX Z (ip), vehicle: methylcellulose (MC) 92 % of control | dose: 44.0 mg/kg/injection, schedule: Q01DX Z (ip), vehicle: methylcellulose (MC) 96 % of control | dose: 66.0 mg/kg/injection, schedule: Q01DX Z (ip), vehicle: methylcellulose (MC) 103 % of control | dose: 100.0 mg/kg/injection, schedule: Q01DX Z (ip), vehicle: methylcellulose (MC) 100 % of control

CC(O)(C(=O)O)c1ccccc1 (stereo not drawn) (tested in a mixture with another compound)
inactive: dose: 100.0 mg/kg/injection, schedule: Q01DX009 (ip), vehicle: other 94 % of control | dose: 100.0 mg/kg/injection, schedule: Q04DX003 (ip), vehicle: saline 92 % of control | dose: 200.0 mg/kg/injection, schedule: Q01DX009 (ip), vehicle: other 98 % of control | dose: 200.0 mg/kg/injection, schedule: Q04DX003 (ip), vehicle: saline 103 % of control | dose: 400.0 mg/kg/injection, schedule: Q01DX009 (ip), vehicle: other 102 % of control | dose: 400.0 mg/kg/injection, schedule: Q04DX003 (ip), vehicle: saline 89 % of control

C#CCOCCCC(=C)C
inactive: dose: 25.0 mg/kg/injection, schedule: Q01DX009 (ip), vehicle: saline 109 % of control | dose: 50.0 mg/kg/injection, schedule: Q01DX009 (ip), vehicle: saline 93 % of control

— PubChem BioAssay AID248 (DTP/NCI, 2004)
